The source made the active and inactive calls.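 How the source made its calls: active means target enzyme inhibited at least 50% at a set dose, and selective over every off-target enzyme by a set factor; inactive means weaker inhibition or too little selectivity.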
Key:
ABHD3 = assay: competitive ABPP of pPAFAH versus proteome hydrolases – biochemical, gel-based, FP-Rh fluorescence, complex proteome, SAR compounds, selectivity assay for pPAFAH inhibitor project, SAR follow-up (AID 588774); details: stronger effect = higher value;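 on inhibition: 0% = DMSO-only band intensity and 100% = blank gel background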
FAAH = assay: as above; details: stronger effect = higher value
pPAFAH = assay: as above; details: anti-targets inhibited, at 10 µM
ABHD4 = ABHD4 (UniProt Q8VD66); assay: as above; details: stronger effect = higher value
Chain of ABHD4 (Q8VD66 whole entry, looked up): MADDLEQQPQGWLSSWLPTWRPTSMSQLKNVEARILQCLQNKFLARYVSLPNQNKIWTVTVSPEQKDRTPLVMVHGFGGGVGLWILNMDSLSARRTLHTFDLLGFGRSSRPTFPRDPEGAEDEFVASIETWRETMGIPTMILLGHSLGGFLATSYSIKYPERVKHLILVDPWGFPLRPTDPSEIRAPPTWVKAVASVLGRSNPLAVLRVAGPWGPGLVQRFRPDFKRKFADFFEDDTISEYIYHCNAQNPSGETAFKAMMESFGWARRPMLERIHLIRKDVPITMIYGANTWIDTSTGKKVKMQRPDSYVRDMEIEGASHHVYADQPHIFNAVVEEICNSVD

[1] = as above; details: at 10 µM
LYPLA1 = assay: as above; details: stronger effect = higher value
LYPLA2 = assay: as above; details: stronger effect = higher value
[2] = molecular target: Platelet-activating factor acetylhydrolase (Mus musculus) (UniProt Q60963); assay: as above; details: pPAFAH, stronger effect = higher value
Chain of Platelet-activating factor acetylhydrolase (Mus musculus) (Q60963 whole entry, looked up): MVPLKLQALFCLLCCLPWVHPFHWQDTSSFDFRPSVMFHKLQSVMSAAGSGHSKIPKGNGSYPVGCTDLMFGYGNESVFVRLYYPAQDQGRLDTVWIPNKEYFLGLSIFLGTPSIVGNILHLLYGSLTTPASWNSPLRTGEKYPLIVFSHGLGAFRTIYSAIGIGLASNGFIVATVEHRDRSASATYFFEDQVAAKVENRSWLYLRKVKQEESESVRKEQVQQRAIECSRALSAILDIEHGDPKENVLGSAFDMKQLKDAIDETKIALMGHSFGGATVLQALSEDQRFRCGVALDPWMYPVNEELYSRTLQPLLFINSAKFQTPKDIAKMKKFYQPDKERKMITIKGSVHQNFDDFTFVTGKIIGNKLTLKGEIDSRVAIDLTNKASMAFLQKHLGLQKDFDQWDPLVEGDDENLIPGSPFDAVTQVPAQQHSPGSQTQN

[3] = molecular target: Monoglyceride lipase (Mus musculus) (UniProt O35678); assay: as above; details: MAGL, stronger effect = higher value
Chain of Monoglyceride lipase (Mus musculus) (O35678 whole entry, looked up): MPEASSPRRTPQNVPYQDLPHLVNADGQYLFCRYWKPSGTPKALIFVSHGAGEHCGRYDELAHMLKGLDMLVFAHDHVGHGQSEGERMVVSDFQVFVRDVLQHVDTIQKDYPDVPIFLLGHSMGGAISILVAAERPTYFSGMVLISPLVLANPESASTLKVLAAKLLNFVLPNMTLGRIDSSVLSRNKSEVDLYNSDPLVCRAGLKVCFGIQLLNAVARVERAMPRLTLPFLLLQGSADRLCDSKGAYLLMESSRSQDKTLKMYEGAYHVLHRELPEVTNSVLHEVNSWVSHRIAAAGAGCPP

MW 32 kDa = assay: as above; details: at 1 µM, stronger effect = higher value
ABHD6 = assay: as above; details: stronger effect = higher value
MW 30 kDa = assay: as above; details: at 1 µM, stronger effect = higher value

| SMILES | inhibition (ABHD3; at 10 µM) | inhibition (ABHD3; inhibition, at 1 µM) [%] | inhibition (FAAH; at 10 µM) | inhibition (FAAH; inhibition, at 0.1 µM) [%] | inhibition (FAAH; inhibition, at 1 µM) [%] | anti-target count (pPAFAH) | inhibition (ABHD4; at 10 µM) | inhibition (ABHD4; inhibition, at 1 µM) [%] | anti-target count ([1]; ABHD3, anti-targets inhibited) | anti-target count ([1]; ABHD4, anti-targets inhibited) | anti-target count ([1]; ABHD6, anti-targets inhibited) | anti-target count ([1]; FAAH, anti-targets inhibited) | anti-target count ([1]; LYPLA1, anti-targets inhibited) | anti-target count ([1]; LYPLA2, anti-targets inhibited) | anti-target count ([1]; MAGL, anti-targets inhibited) | inhibition (LYPLA1; at 10 µM) | inhibition (LYPLA1; inhibition, at 1 µM) [%] | inhibition (LYPLA2; at 10 µM) | inhibition (LYPLA2; inhibition, at 1 µM) [%] | inhibition ([2]; at 10 µM) [%] | also measured |
| --- | --- | --- | --- | --- | --- | --- | --- | --- | --- | --- | --- | --- | --- | --- | --- | --- | --- | --- | --- | --- | --- |
| Cc1cc(N2CCN(C(=O)n3ncc(-c4ccc(OC(F)(F)F)cc4)n3)CC2)c2ccccc2n1 | 100% | 92 | 92% (inactive) | 38 | 91 | 9 | 100% | 92 | 9 | 9 | 9 | 9 | 9 | 9 | 9 | 100% (inactive) | 51 | 96% (inactive) | 39 | 100 | inhibition (ABHD3; inhibition, at 0.1 µM): 75%; inhibition (ABHD4; inhibition, at 0.1 µM): 75%; inhibition ([2]; inhibition, at 0.1 µM): 100%; inhibition ([2]; inhibition, at 1 µM): 100%; inhibition ([3]; at 10 µM): 53% (inactive); inhibition ([3]; inhibition, at 1 µM): 35%; inhibition (MW 32 kDa): 43%; inhibition (ABHD6; at 10 µM): 74% (inactive); inhibition (ABHD6; inhibition, at 0.1 µM): 22%; inhibition (ABHD6; inhibition, at 1 µM): 60%; inhibition (MW 30 kDa): 44% |
| Cc1cc(N2CCN(C(=O)n3ncc(-c4ccc([N+](=O)[O-])cc4)n3)CC2)c2ccccc2n1 | 100% (inactive) | 94 | 87% (inactive) | 6 | 81 | 9 | 100% (inactive) | 94 | 9 | 9 | 9 | 9 | 9 | 9 | 9 | 100% (inactive) | 86 | 100% (inactive) | 58 | 99 | inhibition (ABHD3; inhibition, at 0.1 µM): 11%; inhibition (ABHD4; inhibition, at 0.1 µM): 11%; inhibition (LYPLA1; inhibition, at 0.1 µM): 5%; inhibition ([2]; inhibition, at 0.1 µM): 97%; inhibition ([2]; inhibition, at 1 µM): 99%; inhibition ([3]; at 10 µM): 84% (inactive); inhibition ([3]; inhibition, at 0.1 µM): 28%; inhibition ([3]; inhibition, at 1 µM): 68%; inhibition (MW 32 kDa): 59%; inhibition (ABHD6; at 10 µM): 72% (inactive); inhibition (ABHD6; inhibition, at 0.1 µM): 17%; inhibition (ABHD6; inhibition, at 1 µM): 59%; inhibition (MW 30 kDa): 67% |

More lines, main results first:

| inhibition (ABHD3; at 10 µM) | inhibition (ABHD3; inhibition, at 1 µM) [%] | inhibition (FAAH; at 10 µM) | inhibition (FAAH; inhibition, at 0.1 µM) [%] | inhibition (FAAH; inhibition, at 1 µM) [%] | anti-target count (pPAFAH) | inhibition (ABHD4; at 10 µM) | inhibition (ABHD4; inhibition, at 1 µM) [%] | anti-target count ([1]; ABHD3, anti-targets inhibited) | anti-target count ([1]; ABHD4, anti-targets inhibited) | anti-target count ([1]; ABHD6, anti-targets inhibited) | anti-target count ([1]; FAAH, anti-targets inhibited) | anti-target count ([1]; LYPLA1, anti-targets inhibited) | anti-target count ([1]; LYPLA2, anti-targets inhibited) | anti-target count ([1]; MAGL, anti-targets inhibited) | inhibition (LYPLA1; at 10 µM) | inhibition (LYPLA1; inhibition, at 1 µM) [%] | inhibition (LYPLA2; at 10 µM) | inhibition (LYPLA2; inhibition, at 1 µM) [%] | inhibition ([2]; at 10 µM) [%] | SMILES | also measured |
| --- | --- | --- | --- | --- | --- | --- | --- | --- | --- | --- | --- | --- | --- | --- | --- | --- | --- | --- | --- | --- | --- |
| 100% (inactive) | 86 | 86% | 60 | 83 | 8 | 100% (inactive) | 86 | 8 | 8 | 8 | 8 | 8 | 8 | 8 | 92% (inactive) | 74 | 95% (inactive) | 56 | 96 | COc1ccc(-c2cnn(C(=O)N3CCN(c4cc(C)nc5ccccc45)CC3)n2)cc1 | inhibition (LYPLA1; inhibition, at 0.1 µM): 4%; inhibition ([2]; inhibition, at 0.1 µM): 85%; inhibition ([2]; inhibition, at 1 µM): 88%; inhibition ([3]; at 10 µM): 45% (inactive); inhibition ([3]; inhibition, at 1 µM): 35%; inhibition (MW 32 kDa): 52%; inhibition (ABHD6; at 10 µM): 70% (inactive); inhibition (ABHD6; inhibition, at 0.1 µM): 12%; inhibition (ABHD6; inhibition, at 1 µM): 58%; inhibition (MW 30 kDa): 50% |
| 100% (inactive) | 85 | 83% | 63 | 82 | 9 | 100% (inactive) | 85 | 9 | 9 | 9 | 9 | 9 | 9 | 9 | 96% (inactive) | 86 | 99% (inactive) | 55 | 99 | Cc1cc(N2CCN(C(=O)n3ncc(-c4ccccc4)n3)CC2)c2ccccc2n1 | inhibition ([2]; inhibition, at 0.1 µM): 99%; inhibition ([2]; inhibition, at 1 µM): 99%; inhibition ([3]; at 10 µM): 58% (inactive); inhibition ([3]; inhibition, at 1 µM): 36%; inhibition (MW 32 kDa): 43%; inhibition (ABHD6; at 10 µM): 71% (inactive); inhibition (ABHD6; inhibition, at 1 µM): 54%; inhibition (MW 30 kDa): 51% |
| 100% | 96 | 88% (inactive) | 29 | 74 | 8 | 100% | 96 | 8 | 8 | 8 | 8 | 8 | 8 | 8 | 84% (inactive) | 24 | 61% (inactive) | 18 | 100 | Cc1cc(N2CCN(C(=O)n3ncc(-c4ccc(Cl)c(Cl)c4)n3)CC2)c2ccccc2n1 | inhibition (ABHD3; inhibition, at 0.1 µM): 69%; inhibition (ABHD4; inhibition, at 0.1 µM): 69%; inhibition ([2]; inhibition, at 0.1 µM): 97%; inhibition ([2]; inhibition, at 1 µM): 98%; inhibition ([3]; at 10 µM): 40% (inactive); inhibition ([3]; inhibition, at 1 µM): 26%; inhibition (MW 32 kDa): 12%; inhibition (ABHD6; at 10 µM): 61% (inactive); inhibition (ABHD6; inhibition, at 0.1 µM): 13%; inhibition (ABHD6; inhibition, at 1 µM): 43%; inhibition (MW 30 kDa): 36% |
